Assay results published in patent publication US20240300932A1, “N-PHENYLIMINE DERIVATIVE AND PREPARATION METHOD AND USE THEREOF” (Guizhou University, priority 2023, published 2024).

Experiments:
Experiment in all cases: Post-emergence herbicidal activity test (stem and leaf spray, pot culture)
Type in all cases: in vivo
Settings in all cases: 3 weeks after spraying
Amaranthus retroflexus = tested on: Amaranthus retroflexus
Procedure: (§1) The weeds were cultivated in a 180 mm×140 mm plastic nutrient pot by a pot-culture method, placed in an enamel tray, and the plastic nutrient pots were filled with surface soil (⅘ of a depth) collected from a farmland and air-dried and sieved, and a soil humidity was controlled at 20% in the initial stage. Weed seeds with plump and uniform grains were selected, soaked in warm water at 25° C. for 6 h, and germinated in a biochemical incubator (dark) at 28° C. The freshly exposed weed seeds were evenly placed on the soil surface, and then covered with 0.5 cm to 1 cm of soil according to the size of the seeds. The weeds are cultivated in a controlled sunlight greenhouse at 20° C. to 30° C., under natural light, and a relative humidity of 57% to 72%. The soil was loam, including 1.63% of organic matters, with a pH value of 7, 84.3 mg/kg of alkaline nitrogen, 38.5 mg/kg of available phosphorus, and 82.1 mg/kg of available potassium.
(§2) Each treatment was repeated 2 times, each treatment included 12 pots, and 20 weed seeds were sown in each pot. Pesticide was applied in the test for 1 time in total. When the weeds grew to 1.5- to 2-leaf stage, thinning was conducted, with 10 weeds in each pot, and 30 weeds were kept in each treatment.
(§3) The cultivated weeds were placed on trays with an area of 0.1 m^2, and stems and leaves were sprayed with a sprayer. After applying a pesticide, the pesticide applied weeds were moved into a greenhouse for routine cultivation.
(§4) 2 weeks after sowing, the test plants were treated at the 2- to 3-leaf stage: the compounds of the present disclosure for testing were dissolved in acetone separately, and added with Tween 80, an emulsifiable oil of 1.5 liters/ha methyl oleate was added as a synergist, and an obtained mixture was diluted with certain water to a certain concentration solution. The solution was sprayed onto the plants using a spray tower. After spraying, the weeds were cultivated in the greenhouse for 3 weeks, and the experimental effects on the weeds were counted. The effective concentrations of the compounds were 10 g/mu, 5 g/mu, and 2.5 g/mu, the experiment was repeated three times, and an average result was taken.
(§5) The activity level criteria for plant destruction (i.e. growth control rate) are as follows: • Grade 5: the growth control rate is greater than or equal to 85%; • Grade 4: the growth control rate is greater than or equal to 60% and less than 85%; • Grade 3: the growth control rate is greater than or equal to 40% and less than 60%; • Grade 2: the growth control rate is greater than or equal to 20% and less than 40%; • Grade 1: the growth control rate is greater than or equal to 5% and less than 20%; and • Grade 0: the growth control rate is less than 5%.
(§6) The growth control rate is a fresh weight control rate.

Portulaca oleracea = tested on: Portulaca oleracea
Procedure: as §1, §2, §3, §4, §5, §6

Echinochloa crusgalli = tested on: Echinochloa crusgalli
Procedure: as §1, §2, §3, §4, §5, §6

Setaria viridis = tested on: Setaria viridis
Procedure: as §1, §2, §3, §4, §5, §6

Abutilon theophrasti = tested on: Abutilon theophrasti
Procedure: as §1, §2, §3, §4, §5, §6

Trifoliumre pensL. = tested on: Trifoliumre pensL.
Procedure: (1) Post-Emergence Stem and Leaf Spray Treatment: The weeds were cultivated in a 180 mm×140 mm plastic nutrient pot by a pot-culture method, placed in an enamel tray, and the plastic nutrient pots were filled with surface soil (⅘ of a depth) collected from a farmland and air-dried and sieved, and a soil humidity was controlled at 20% in the initial stage. Weed seeds with plump and uniform grains were selected, soaked in warm water at 25° C. for 6 h, and germinated in a biochemical incubator (dark) at 28° C. The freshly exposed weed seeds were evenly placed on the soil surface, and then covered with 0.5 cm to 1 cm of soil according to the size of the seeds. The weeds are cultivated in a controlled sunlight greenhouse at 20° C. to 30° C., under natural light, and a relative humidity of 57% to 72%. The soil was loam, including 1.63% of organic matters, with a pH value of 7, 84.3 mg/kg of alkaline nitrogen, 38.5 mg/kg of available phosphorus, and 82.1 mg/kg of available potassium. Each treatment was repeated 2 times, each treatment included 12 pots, and 20 weed seeds were sown in each pot. Pesticide was applied in the test for 1 time in total. When the weeds grew to 1.5- to 2-leaf stage, thinning was conducted, with 10 weeds in each pot, and 30 weeds were kept in each treatment. The cultivated weeds were placed on trays with an area of 0.1 m^2, and stems and leaves were sprayed with a sprayer. After applying a pesticide, the pesticide applied weeds were moved into a greenhouse for routine cultivation. 2 weeks after sowing, the test plants were treated at the 2- to 3-leaf stage: the compounds of the present disclosure for testing were dissolved in acetone separately, and added with Tween 80, an emulsifiable oil of 1.5 liters/ha methyl oleate was added as a synergist, and an obtained mixture was diluted with certain water to a certain concentration solution. The solution was sprayed onto the plants using a spray tower. After spraying, the weeds were cultivated in the greenhouse for 3 weeks, and the experimental effects on the weeds were counted. The effective concentrations of the compounds were 10 g/mu, 5 g/mu, and 2.5 g/mu, the experiment was repeated three times, and an average result was taken.

Structure (SMILES) | Post-emergence herbicidal activity, A. retroflexus (grade) (Amaranthus retroflexus; dosage 2.5 g/mu) | Post-emergence herbicidal activity, A. retroflexus (grade) (Amaranthus retroflexus; dosage 5 g/mu) | Post-emergence herbicidal activity, A. retroflexus (grade) (Amaranthus retroflexus; dosage 10 g/mu) | Post-emergence herbicidal activity, P. oleracea (grade) (Portulaca oleracea; dosage 2.5 g/mu) | Post-emergence herbicidal activity, P. oleracea (grade) (Portulaca oleracea; dosage 5 g/mu) | Post-emergence herbicidal activity, P. oleracea (grade) (Portulaca oleracea; dosage 10 g/mu) | Post-emergence herbicidal activity, E. crusgalli (grade) (Echinochloa crusgalli; dosage 2.5 g/mu) | Post-emergence herbicidal activity, E. crusgalli (grade) (Echinochloa crusgalli; dosage 5 g/mu) | Post-emergence herbicidal activity, E. crusgalli (grade) (Echinochloa crusgalli; dosage 10 g/mu) | Post-emergence herbicidal activity, S. viridis (grade) (Setaria viridis; dosage 2.5 g/mu) | Post-emergence herbicidal activity, S. viridis (grade) (Setaria viridis; dosage 5 g/mu) | Post-emergence herbicidal activity, S. viridis (grade) (Setaria viridis; dosage 10 g/mu) | Post-emergence herbicidal activity, A. theophrasti (grade) (Abutilon theophrasti; dosage 2.5 g/mu) | Post-emergence herbicidal activity, A. theophrasti (grade) (Abutilon theophrasti; dosage 5 g/mu) | Post-emergence herbicidal activity, A. theophrasti (grade) (Abutilon theophrasti; dosage 10 g/mu) | Post-emergence herbicidal activity, Trifoliumre pensL. (grade) (Trifoliumre pensL.; dosage 2.5 g/mu) | Post-emergence herbicidal activity, Trifoliumre pensL. (grade) (Trifoliumre pensL.; dosage 5 g/mu) | Post-emergence herbicidal activity, Trifoliumre pensL. (grade) (Trifoliumre pensL.; dosage 10 g/mu)
O=C1C2=C(CCCC2)C(=O)N1c1cc(OCc2nc(-c3ccccc3Cl)no2)c(Cl)cc1F [Compound A8] | 5 (Grade 5: the growth control rate is greater than or equal to 85%) | 5 (Grade 5: the growth control rate is greater than or equal to 85%) | 5 (Grade 5: the growth control rate is greater than or equal to 85%) | 4 (Grade 4: the growth control rate is greater than or equal to 60% and less than 85%) | 5 (Grade 5: the growth control rate is greater than or equal to 85%) | 5 (Grade 5: the growth control rate is greater than or equal to 85%) | 1 (Grade 1: the growth control rate is greater than or equal to 5% and less than 20%) | 2 (Grade 2: the growth control rate is greater than or equal to 20% and less than 40%) | 3 (Grade 3: the growth control rate is greater than or equal to 40% and less than 60%) | 2 (Grade 2: the growth control rate is greater than or equal to 20% and less than 40%) | 3 (Grade 3: the growth control rate is greater than or equal to 40% and less than 60%) | 4 (Grade 4: the growth control rate is greater than or equal to 60% and less than 85%) | 5 (Grade 5: the growth control rate is greater than or equal to 85%) | 5 (Grade 5: the growth control rate is greater than or equal to 85%) | 5 (Grade 5: the growth control rate is greater than or equal to 85%) | 4 (Grade 4: the growth control rate is greater than or equal to 60% and less than 85%) | 5 (Grade 5: the growth control rate is greater than or equal to 85%) | 5 (Grade 5: the growth control rate is greater than or equal to 85%)
Cc1ccc(-c2noc(COc3cc(N4C(=O)C5=C(CCCC5)C4=O)c(F)cc3Cl)n2)c(F)c1 [Compound A9] | 5 (Grade 5: the growth control rate is greater than or equal to 85%) | 5 (Grade 5: the growth control rate is greater than or equal to 85%) | 5 (Grade 5: the growth control rate is greater than or equal to 85%) | 4 (Grade 4: the growth control rate is greater than or equal to 60% and less than 85%) | 5 (Grade 5: the growth control rate is greater than or equal to 85%) | 5 (Grade 5: the growth control rate is greater than or equal to 85%) | 1 (Grade 1: the growth control rate is greater than or equal to 5% and less than 20%) | 2 (Grade 2: the growth control rate is greater than or equal to 20% and less than 40%) | 3 (Grade 3: the growth control rate is greater than or equal to 40% and less than 60%) | 2 (Grade 2: the growth control rate is greater than or equal to 20% and less than 40%) | 3 (Grade 3: the growth control rate is greater than or equal to 40% and less than 60%) | 4 (Grade 4: the growth control rate is greater than or equal to 60% and less than 85%) | 5 (Grade 5: the growth control rate is greater than or equal to 85%) | 5 (Grade 5: the growth control rate is greater than or equal to 85%) | 5 (Grade 5: the growth control rate is greater than or equal to 85%) | 4 (Grade 4: the growth control rate is greater than or equal to 60% and less than 85%) | 5 (Grade 5: the growth control rate is greater than or equal to 85%) | 5 (Grade 5: the growth control rate is greater than or equal to 85%)
O=C1C2=C(CCCC2)C(=O)N1c1cc(OCc2nc(-c3cnc(C(F)(F)F)cc3Cl)no2)c(Cl)cc1F [Compound A10] | 5 (Grade 5: the growth control rate is greater than or equal to 85%) | 5 (Grade 5: the growth control rate is greater than or equal to 85%) | 5 (Grade 5: the growth control rate is greater than or equal to 85%) | 4 (Grade 4: the growth control rate is greater than or equal to 60% and less than 85%) | 5 (Grade 5: the growth control rate is greater than or equal to 85%) | 5 (Grade 5: the growth control rate is greater than or equal to 85%) | 1 (Grade 1: the growth control rate is greater than or equal to 5% and less than 20%) | 2 (Grade 2: the growth control rate is greater than or equal to 20% and less than 40%) | 3 (Grade 3: the growth control rate is greater than or equal to 40% and less than 60%) | 2 (Grade 2: the growth control rate is greater than or equal to 20% and less than 40%) | 3 (Grade 3: the growth control rate is greater than or equal to 40% and less than 60%) | 4 (Grade 4: the growth control rate is greater than or equal to 60% and less than 85%) | 5 (Grade 5: the growth control rate is greater than or equal to 85%) | 5 (Grade 5: the growth control rate is greater than or equal to 85%) | 5 (Grade 5: the growth control rate is greater than or equal to 85%) | 4 (Grade 4: the growth control rate is greater than or equal to 60% and less than 85%) | 5 (Grade 5: the growth control rate is greater than or equal to 85%) | 5 (Grade 5: the growth control rate is greater than or equal to 85%)
